Results on 53 compounds are retold here after ChEMBL document CHEMBL4145544, “Discovery and optimization of 1-(1H-indol-1-yl)ethanone derivatives as CBP/EP300 bromodomain inhibitors for the treatment of castration-resistant prostate cancer” (Eur J Med Chem, 2018).

Assay [1] addresses CREB-binding protein (Homo sapiens, UniProt Q92793). Briefly: Inhibition of biotinylated-H4KAc4 binding to human His6-tagged CBP (R1081 to G1197 residues) expressed in Escherichia coli BL21(DE3) after 2.5 hrs by luminescence-based AlphaScreen assay. For orientation: Alpha assays give light when donor and acceptor beads are brought close together.
Assay [2] deals with Bromodomain-containing protein 4 (Homo sapiens, UniProt O60885). Briefly: Inhibition of biotinylated-H4KAc4 binding to human His6-tagged BRD4 bromodomain-1 (N44 to E168 residues) expressed in Escherichia coli BL21(DE3) at 50 uM after 2.5 hrs by luminescence-based AlphaScreen assay relative to control.
For assay [3], the target named is T1, ATPase family AAA domain-containing protein 2 (Homo sapiens) (UniProt Q6PL18).
T1 sequence (whole entry): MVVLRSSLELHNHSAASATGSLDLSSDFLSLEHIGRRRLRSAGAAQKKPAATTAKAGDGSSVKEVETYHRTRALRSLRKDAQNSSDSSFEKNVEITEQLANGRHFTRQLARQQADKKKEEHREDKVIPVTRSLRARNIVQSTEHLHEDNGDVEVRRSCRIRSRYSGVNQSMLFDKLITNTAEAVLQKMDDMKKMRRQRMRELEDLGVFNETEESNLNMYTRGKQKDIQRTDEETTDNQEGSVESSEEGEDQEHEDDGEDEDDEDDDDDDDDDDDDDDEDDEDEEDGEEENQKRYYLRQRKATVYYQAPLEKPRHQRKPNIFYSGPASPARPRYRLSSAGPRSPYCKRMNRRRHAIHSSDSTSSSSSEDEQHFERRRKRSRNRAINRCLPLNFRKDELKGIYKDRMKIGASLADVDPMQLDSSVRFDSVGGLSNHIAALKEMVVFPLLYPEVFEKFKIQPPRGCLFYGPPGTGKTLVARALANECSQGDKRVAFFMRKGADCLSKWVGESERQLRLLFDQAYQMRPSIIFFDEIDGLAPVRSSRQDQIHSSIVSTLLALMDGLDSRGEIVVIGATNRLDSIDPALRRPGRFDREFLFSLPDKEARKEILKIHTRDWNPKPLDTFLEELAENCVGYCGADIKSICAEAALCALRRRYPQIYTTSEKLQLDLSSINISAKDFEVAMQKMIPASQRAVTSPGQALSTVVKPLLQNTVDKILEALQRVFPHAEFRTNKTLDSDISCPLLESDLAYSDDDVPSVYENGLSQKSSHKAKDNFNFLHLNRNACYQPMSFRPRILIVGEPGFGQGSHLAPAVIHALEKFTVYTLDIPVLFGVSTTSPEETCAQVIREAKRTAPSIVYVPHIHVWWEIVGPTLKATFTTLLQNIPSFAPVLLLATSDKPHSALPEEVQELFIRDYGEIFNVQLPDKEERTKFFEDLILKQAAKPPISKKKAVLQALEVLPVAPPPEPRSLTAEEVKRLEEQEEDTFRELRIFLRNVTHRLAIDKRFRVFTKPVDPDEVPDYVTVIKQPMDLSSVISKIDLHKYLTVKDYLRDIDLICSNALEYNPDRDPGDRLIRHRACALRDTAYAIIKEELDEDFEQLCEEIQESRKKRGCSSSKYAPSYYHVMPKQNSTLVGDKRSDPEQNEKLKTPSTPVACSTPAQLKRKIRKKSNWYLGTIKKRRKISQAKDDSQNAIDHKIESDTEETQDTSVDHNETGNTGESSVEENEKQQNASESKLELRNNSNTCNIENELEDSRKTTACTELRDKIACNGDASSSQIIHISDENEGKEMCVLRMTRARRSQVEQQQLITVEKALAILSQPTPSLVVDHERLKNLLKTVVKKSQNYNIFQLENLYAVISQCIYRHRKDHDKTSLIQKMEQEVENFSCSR
Briefly: Inhibition of biotinylated-H4KAc4 binding to human His6-tagged ATAD2 expressed in Escherichia coli BL21(DE3) at 50 uM after 2.5 hrs by luminescence-based AlphaScreen assay relative to control.

Assay [4] has as its target Bromodomain adjacent to zinc finger domain protein 2B (Homo sapiens, UniProt Q9UIF8). Briefly: Inhibition of biotinylated-H4KAc4 binding to human His6-tagged BAZ2B (S1858 to S1972 residues) expressed in Escherichia coli BL21(DE3) at 50 uM after 2.5 hrs by luminescence-based AlphaScreen assay relative to control.

Each structure is given as a SMILES string. A value given as a limit tells only on which side of the number the result lay.

Chain of CREB-binding protein (Q92793 whole entry, the tested form may be a part): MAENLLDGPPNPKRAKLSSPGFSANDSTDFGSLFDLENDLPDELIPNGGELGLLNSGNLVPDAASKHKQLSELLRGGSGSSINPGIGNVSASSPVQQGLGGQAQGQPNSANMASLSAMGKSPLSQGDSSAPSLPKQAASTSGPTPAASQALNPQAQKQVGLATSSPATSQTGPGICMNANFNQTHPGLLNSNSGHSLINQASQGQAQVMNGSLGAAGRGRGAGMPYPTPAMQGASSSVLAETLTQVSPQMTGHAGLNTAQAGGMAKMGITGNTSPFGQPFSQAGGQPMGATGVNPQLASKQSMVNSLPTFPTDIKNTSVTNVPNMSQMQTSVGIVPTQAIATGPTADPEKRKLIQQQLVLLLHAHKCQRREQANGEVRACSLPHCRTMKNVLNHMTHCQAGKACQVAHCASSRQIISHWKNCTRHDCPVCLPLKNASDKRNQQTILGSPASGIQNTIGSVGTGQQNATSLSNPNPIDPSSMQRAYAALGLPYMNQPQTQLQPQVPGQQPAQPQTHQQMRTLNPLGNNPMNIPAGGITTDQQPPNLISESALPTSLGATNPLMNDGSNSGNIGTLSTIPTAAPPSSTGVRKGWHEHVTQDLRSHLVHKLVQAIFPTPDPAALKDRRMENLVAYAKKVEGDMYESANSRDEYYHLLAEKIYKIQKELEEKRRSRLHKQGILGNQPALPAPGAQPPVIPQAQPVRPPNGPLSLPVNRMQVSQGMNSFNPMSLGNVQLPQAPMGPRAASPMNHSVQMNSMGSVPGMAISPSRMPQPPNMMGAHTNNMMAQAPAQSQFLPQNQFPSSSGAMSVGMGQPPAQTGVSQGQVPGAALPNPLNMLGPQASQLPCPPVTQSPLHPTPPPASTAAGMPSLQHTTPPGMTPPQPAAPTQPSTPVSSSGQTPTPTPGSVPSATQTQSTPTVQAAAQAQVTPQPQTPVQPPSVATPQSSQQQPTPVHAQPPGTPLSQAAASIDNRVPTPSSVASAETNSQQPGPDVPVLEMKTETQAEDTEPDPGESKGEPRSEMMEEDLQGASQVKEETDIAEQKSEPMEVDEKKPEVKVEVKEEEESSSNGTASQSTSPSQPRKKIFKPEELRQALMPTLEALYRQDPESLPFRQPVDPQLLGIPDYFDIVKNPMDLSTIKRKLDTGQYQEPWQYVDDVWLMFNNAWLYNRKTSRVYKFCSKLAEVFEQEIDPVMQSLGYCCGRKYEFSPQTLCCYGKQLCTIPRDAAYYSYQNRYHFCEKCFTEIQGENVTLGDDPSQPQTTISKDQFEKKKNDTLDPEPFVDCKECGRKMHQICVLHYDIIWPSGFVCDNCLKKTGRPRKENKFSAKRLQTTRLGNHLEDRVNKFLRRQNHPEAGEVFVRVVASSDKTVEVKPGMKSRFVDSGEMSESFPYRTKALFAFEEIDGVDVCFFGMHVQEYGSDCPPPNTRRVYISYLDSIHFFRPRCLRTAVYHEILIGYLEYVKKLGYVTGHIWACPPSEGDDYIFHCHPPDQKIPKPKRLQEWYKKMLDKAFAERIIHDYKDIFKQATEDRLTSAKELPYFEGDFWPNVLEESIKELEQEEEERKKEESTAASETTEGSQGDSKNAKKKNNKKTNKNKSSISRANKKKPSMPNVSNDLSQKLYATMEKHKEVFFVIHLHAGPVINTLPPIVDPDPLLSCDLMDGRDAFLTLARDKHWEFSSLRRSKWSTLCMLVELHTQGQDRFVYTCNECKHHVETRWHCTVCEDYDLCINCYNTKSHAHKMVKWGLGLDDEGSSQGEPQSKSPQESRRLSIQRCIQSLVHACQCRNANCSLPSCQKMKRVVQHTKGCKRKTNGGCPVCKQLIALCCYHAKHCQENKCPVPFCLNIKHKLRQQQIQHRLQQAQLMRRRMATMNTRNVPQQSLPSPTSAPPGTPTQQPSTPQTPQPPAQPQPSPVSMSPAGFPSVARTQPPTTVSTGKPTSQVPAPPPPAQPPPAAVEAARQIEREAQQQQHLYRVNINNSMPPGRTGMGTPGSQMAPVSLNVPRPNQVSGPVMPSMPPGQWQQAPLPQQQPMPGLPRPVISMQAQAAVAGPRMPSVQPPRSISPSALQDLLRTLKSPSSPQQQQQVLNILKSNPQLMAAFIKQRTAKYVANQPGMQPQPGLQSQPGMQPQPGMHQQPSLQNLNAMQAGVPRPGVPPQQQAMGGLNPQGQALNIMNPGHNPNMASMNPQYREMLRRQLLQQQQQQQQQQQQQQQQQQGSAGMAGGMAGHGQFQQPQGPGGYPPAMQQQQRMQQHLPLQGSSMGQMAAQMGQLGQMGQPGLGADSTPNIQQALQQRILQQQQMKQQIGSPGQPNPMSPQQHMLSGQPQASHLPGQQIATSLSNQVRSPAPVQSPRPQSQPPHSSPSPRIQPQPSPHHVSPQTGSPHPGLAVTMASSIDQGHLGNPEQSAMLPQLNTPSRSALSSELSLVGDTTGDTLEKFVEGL
Chain of Bromodomain adjacent to zinc finger domain protein 2B (Q9UIF8 whole entry, the tested form may be a part): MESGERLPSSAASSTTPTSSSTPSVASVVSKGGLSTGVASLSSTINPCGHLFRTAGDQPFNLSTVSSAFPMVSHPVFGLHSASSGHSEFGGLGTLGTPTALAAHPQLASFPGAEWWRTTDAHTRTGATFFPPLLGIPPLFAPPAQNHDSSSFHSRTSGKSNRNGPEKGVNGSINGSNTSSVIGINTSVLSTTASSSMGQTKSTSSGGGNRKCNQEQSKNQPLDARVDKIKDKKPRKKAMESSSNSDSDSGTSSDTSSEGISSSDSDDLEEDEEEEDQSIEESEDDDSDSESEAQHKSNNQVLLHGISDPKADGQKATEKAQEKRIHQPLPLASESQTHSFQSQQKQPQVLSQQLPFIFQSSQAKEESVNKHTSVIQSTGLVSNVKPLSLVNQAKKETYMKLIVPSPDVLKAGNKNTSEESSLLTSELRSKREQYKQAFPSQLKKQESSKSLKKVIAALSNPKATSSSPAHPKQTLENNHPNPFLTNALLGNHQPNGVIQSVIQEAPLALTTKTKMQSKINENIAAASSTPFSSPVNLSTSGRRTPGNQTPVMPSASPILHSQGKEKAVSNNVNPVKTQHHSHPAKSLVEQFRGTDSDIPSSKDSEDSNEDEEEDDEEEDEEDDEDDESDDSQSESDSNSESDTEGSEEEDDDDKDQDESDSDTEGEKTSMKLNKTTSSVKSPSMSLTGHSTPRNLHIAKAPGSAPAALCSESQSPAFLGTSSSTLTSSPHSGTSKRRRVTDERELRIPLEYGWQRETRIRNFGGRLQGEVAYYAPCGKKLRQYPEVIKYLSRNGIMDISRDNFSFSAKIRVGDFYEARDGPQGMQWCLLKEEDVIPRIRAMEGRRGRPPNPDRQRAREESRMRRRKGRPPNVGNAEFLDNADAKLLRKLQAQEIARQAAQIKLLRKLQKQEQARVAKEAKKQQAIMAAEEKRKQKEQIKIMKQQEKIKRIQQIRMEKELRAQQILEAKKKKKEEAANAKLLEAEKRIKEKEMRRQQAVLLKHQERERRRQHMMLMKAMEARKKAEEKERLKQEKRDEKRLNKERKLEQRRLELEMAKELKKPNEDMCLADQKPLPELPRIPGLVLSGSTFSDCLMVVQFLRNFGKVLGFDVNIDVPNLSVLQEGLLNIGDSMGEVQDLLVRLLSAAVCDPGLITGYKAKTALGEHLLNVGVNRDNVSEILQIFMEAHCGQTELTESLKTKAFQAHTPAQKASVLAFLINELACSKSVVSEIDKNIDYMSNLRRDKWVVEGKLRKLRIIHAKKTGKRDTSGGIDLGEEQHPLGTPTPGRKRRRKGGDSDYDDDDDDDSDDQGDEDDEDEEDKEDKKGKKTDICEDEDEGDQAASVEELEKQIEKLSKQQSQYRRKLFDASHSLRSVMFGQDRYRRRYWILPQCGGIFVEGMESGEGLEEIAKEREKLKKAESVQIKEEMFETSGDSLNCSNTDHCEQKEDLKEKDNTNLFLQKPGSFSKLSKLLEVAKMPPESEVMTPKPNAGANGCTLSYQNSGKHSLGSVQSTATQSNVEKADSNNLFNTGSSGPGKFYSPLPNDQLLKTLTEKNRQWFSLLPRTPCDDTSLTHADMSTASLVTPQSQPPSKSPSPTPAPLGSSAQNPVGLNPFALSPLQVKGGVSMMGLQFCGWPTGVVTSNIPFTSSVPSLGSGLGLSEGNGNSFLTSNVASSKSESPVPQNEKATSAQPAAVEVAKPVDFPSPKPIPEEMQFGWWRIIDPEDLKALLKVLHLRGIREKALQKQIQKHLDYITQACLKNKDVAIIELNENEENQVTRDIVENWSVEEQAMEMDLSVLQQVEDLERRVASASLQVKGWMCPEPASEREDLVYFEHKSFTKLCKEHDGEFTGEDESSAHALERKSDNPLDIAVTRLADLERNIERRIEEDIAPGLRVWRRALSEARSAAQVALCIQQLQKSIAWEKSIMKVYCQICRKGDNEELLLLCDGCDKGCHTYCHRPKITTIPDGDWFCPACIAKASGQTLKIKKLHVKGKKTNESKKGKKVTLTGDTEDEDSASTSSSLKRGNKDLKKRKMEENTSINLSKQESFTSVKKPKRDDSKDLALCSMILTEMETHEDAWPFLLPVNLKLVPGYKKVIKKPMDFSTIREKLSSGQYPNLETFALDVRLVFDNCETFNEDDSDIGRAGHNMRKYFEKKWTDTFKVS

In general, IC50 refers to the concentration at which inhibition is half-maximal. Read a low IC50 as greater potency. As for `CC(=O)n1cc(C(=O)Nc2cc(C(=O)O)cc(-c3cccc(F)c3)c2)c2ccccc21`, the IC50 in assay [1] turned out to be 3.52 µM. That is a single-digit micromolar value. The same measure, in the same setting: the result for `COc1ccc2c(c1)c(C(=O)Nc1cc(C(=O)O)cc(-c3ccc4c(c3)OCCO4)c1)cn2C(C)=O` reads 0.69 µM; that for `CC(=O)n1cc(C(=O)Nc2cc(C(=O)O)cc(-c3cncc(C)c3)c2)c2ccccc21`, 1.69 µM.

Regarding `CC(=O)n1cc(C(=O)Nc2cc(C(=O)O)cc(-c3ccc4c(cnn4C)c3)c2)c2ccccc21`, the IC50 in assay [1] was determined as 1 µM. On the same count and under the same terms, under `CC(=O)n1cc(C(=O)Nc2cc(C(=O)O)cc(-c3cccc(C(F)(F)F)c3)c2)c2ccccc21` stands 4.05 µM. On the same count and under the same terms, under `COC(=O)c1cccc(NC(=O)c2cn(C(C)=O)c3ccccc23)c1` stands 3.39 µM; under `CC(=O)n1cc(C(=O)Nc2cc(CC(C)C)cc(C(=O)O)c2)c2ccccc21`, 3.39 µM; under `CC(=O)n1cc(C(=O)Nc2cc(C(=O)O)ccc2NCc2ccccc2)c2ccccc21`, 4.11 µM. One may read the inhibition as the change of the read-out against control, counted positive when it falls. For the compound `CC(=O)c1coc2c1cc(O)c1ccccc12`, the inhibition was found to be 51% in assay [2], 55% in assay [3] and 36% in assay [4]. Also, in assay [1], the IC50 was found to be 41.4 µM. With `CCCNc1ccc(C(=O)O)cc1NC(=O)c1cn(C(C)=O)c2ccccc12`, in assay [1], the IC50 came to 6.56 µM. That is a single-digit micromolar value. Regarding `CC(=O)n1c(C#N)nc2ccccc21`, the figures for the inhibition in assay [2], in assay [3] and in assay [4] were 20%, 29% and 24%, respectively. In addition, in assay [1], the IC50 is more than 50 µM. Turning to `COc1cccc(-c2cc(NC(=O)c3cn(C(C)=O)c4ccccc34)cc(C(=O)O)c2)c1`, the 50% inhibitory concentration (IC50) in assay [1] worked out at 2.07 µM. Same read-out and setting: under `CC(=O)n1cc(C(=O)NCCN2CCNC2=O)c2ccccc21` stands 32.6 µM; under `CC(=O)n1cc(C(=O)Nc2cc(C(=O)O)cc(C3CC3)c2)c2ccccc21`, 2.74 µM. Regarding `Cn1nc(-c2ccc(Cl)cc2)c2ccccc2c1=O`, the inhibition in assay [2] came to 57%; in assay [3], 49%; in assay [4] it was 34%. In assay [1], the IC50 was more than 50 µM.

In assay [1], `CCCOc1ccc2c(c1)c(C(=O)Nc1cc(C(=O)O)cc(-c3ccco3)c1)cn2C(C)=O` gave an IC50 of 26.2 µM.

`CC(=O)n1cc(C(=O)Nc2cc(C(=O)O)cc(C3CCCC3)c2)c2ccccc21` registered a concentration for half-maximal inhibition (IC50) in assay [1] of 2.99 µM. Turning to `CC(=O)n1ncc2c([N+](=O)[O-])cc([N+](=O)[O-])cc21`, the inhibition in assay [2] amounted to 98%; in assay [3], 98%; in assay [4], 97%. For the same compound, in assay [1], the IC50 amounted to 9.11 µM. Turning to `CC(=O)c1nn(-c2ccccc2)c(C)c1C(C)=O`, the results for the inhibition in assay [2], in assay [3] and in assay [4] were 5%, 19% and 6%, respectively. This compound also returned an IC50 in assay [1] of more than 50 µM. With `CC(=O)c1cccc(NC(=O)c2cn(C(C)=O)c3ccccc23)c1`, the IC50 in assay [1] was 25.4 µM.

On to `O=C1N=CC(c2cccc([N+](=O)[O-])c2)c2ccccc21` (stereo unspecified), for which the inhibition in assay [2] came to 23%; in assay [3] it was 87%; in assay [4] it was 59%. In assay [1], the IC50 is more than 50 µM. In turn, `COC(=O)C1CCN(C(=O)Cn2cc(C(C)=O)c3ccccc32)CC1` returned an IC50 in assay [1] of 19.8 µM. The same measure, in the same setting: the result for `CC(=O)n1cc(C(=O)Nc2cc(C(=O)O)ccc2NC2CC2)c2ccccc21` reads 4.84 µM; that for `CC(=O)n1cc(C(=O)Nc2cc(C(=O)O)cc(-c3ccccc3)c2)c2ccccc21`, 1.86 µM; that for `CC(=O)n1cc(C(=O)Nc2cc(CCc3ccccc3)cc(C(=O)O)c2)c2ccccc21`, 1.96 µM. On the same count and under the same terms, under `CCc1cc(NC(=O)c2cn(C(C)=O)c3ccccc23)cc(C(=O)O)c1` stands 2.8 µM; under `COC(=O)[C@H]1CCCN(C(=O)Cn2cc(C(C)=O)c3ccccc32)C1`, 7.09 µM. As for `Nc1c(Nc2ccccc2)c2ccccc2oc1=O`, the values for the inhibition in assay [2], in assay [3] and in assay [4] were 8%, 32% and 32%, respectively. This compound displayed a half-inhibitory concentration (IC50) in assay [1] of more than 50 µM. For `CC(=O)n1cc(C(=O)Nc2cc(C(=O)O)cc(C3CCCCC3)c2)c2ccccc21`, the IC50 in assay [1] worked out at 2.48 µM. The same measure, in the same setting: the result for `CC(=O)n1cc(C(=O)Nc2cc(C(=O)O)ccc2NCC2CCOCC2)c2ccccc21` reads 6.36 µM; that for `CC(=O)n1cc(C(=O)Nc2cc(C(=O)O)ccc2NCC2CCCCC2)c2ccccc21`, 2.33 µM. As to `CC(=O)Nc1ccc2c(c1)c1ccccc1n2C(C)=O`, the inhibition in assay [2] is -3%; in assay [3] it was 4%; in assay [4], 10%. Besides, the IC50 in assay [1] is more than 50 µM.

As to `CC(=O)n1cc(C(=O)Nc2cc(C(=O)O)ccc2NC2CCCC2)c2ccccc21`, the IC50 in assay [1] amounted to 1.89 µM. For `CC(=O)c1nn(-c2ccccc2)cc1C(=O)c1ccccc1`, the inhibition in assay [2] worked out at 27%; in assay [3] it was 35%; in assay [4] it was 21%. The 50% inhibitory concentration (IC50) in assay [1] was more than 50 µM. With `CCOC(=O)CCn1cc(C(C)=O)c2ccccc21`, in assay [1], the half-inhibitory concentration (IC50) was determined as 39.6 µM. On to `CCCCNc1ccc(C(=O)O)cc1NC(=O)c1cn(C(C)=O)c2ccccc12`, for which, in assay [1], the IC50 is more than 50 µM.

Take `CC(=O)c1cn(CC(=O)N2CCC(C(=O)O)CC2)c2ccccc12`: the IC50 in assay [1] amounted to 13.6 µM. In assay [1], `CC(=O)n1cc(C(=O)Nc2cc(C(=O)O)ccc2NCC2CC2)c2ccccc21` registered an IC50 of 21.6 µM. As to `CC(=O)c1nn(-c2ccccc2)c2c1CCCC2`, the inhibition was -2% in assay [2] and 6% in assay [3]. Also, the IC50 in assay [1] was more than 50 µM. With `CC(=O)n1cc(C(=O)Nc2cc(C(=O)O)cc(-c3cc4ccccc4o3)c2)c2ccccc21`, the IC50 in assay [1] was 2.81 µM.

Turning to `COc1ccc2c(c1)c(C(=O)Nc1cc(C(=O)O)cc(-c3ccc4c(cnn4C)c3)c1)cn2C(C)=O`, the IC50 in assay [1] was found to be 0.29 µM.

On to `Nc1c(N2CCCC2)c2ccccc2oc1=O`, for which the inhibition in assay [2] was determined as 47%; in assay [3] it was 52%; in assay [4] it was 69%. Further, in assay [1], the IC50 is more than 50 µM. `CC(=O)n1cc(C(=O)Nc2cc(C(=O)O)ccc2NC2CCCCCC2)c2ccccc21` registered an IC50 in assay [1] of 1.67 µM. On the same count and under the same terms, the result for `CC(=O)n1cc(C(=O)Nc2cc(Br)cc(C(=O)O)c2)c2ccccc21` reads 4.7 µM; that for `CC(=O)n1cc(C(=O)Nc2cc(C(=O)O)ccc2NCC(C)C)c2ccccc21`, 2.33 µM. Still for that read-out and setting: the result for `CC(=O)NCCNC(=O)c1cn(C(C)=O)c2ccccc12` reads 33.8 µM; that for `CC(=O)c1cn(CC(=O)N2CCC[C@H](C(=O)O)C2)c2ccccc12`, 6.8 µM. As to `CC(=O)OCc1cn(C(C)=O)c2ccccc12`, the inhibition in assay [2] was 17%; in assay [3], 32%; in assay [4], 10%. This compound also came in with a 50% inhibitory concentration (IC50) in assay [1] of more than 50 µM. As for `CC(=O)n1cc(C(=O)Nc2cc(C(=O)O)ccc2NC2CCOCC2)c2ccccc21`, the IC50 in assay [1] turned out to be 8.5 µM. The same measure, in the same setting: under `CC(=O)n1cc(C(=O)Nc2cc(C(=O)O)cc(-c3ccco3)c2)c2cc(O)ccc21` stands 0.17 µM; under `CCOc1ccc2c(c1)c(C(=O)Nc1cc(C(=O)O)cc(-c3ccco3)c1)cn2C(C)=O`, 3.89 µM; under `CC(=O)n1cc(C(=O)Nc2cc(C(=O)O)cc(-c3cccc(Cl)c3)c2)c2ccccc21`, 1.44 µM. For the compound `CC(=O)c1cn(CCC(=O)O)c2ccccc12`, the results for the inhibition in assay [2], in assay [3] and in assay [4] were 34%, 39% and 21%, respectively. In assay [1], the IC50 worked out at 16.7 µM.
